Literature values, collected in patent publication US20140066504A1, “ANALOGS AND PRODRUGS OF BUMETANIDE; COMPOSITIONS AND METHODS OF USE” (priority 2012, published 2014).

How the values were obtained:
[1] = test system: rat models of anxiety
[2] = test system: primate cortex; conditions: relative to furosemide
[3] = test system: rats
[4] = test system: audiogenic seizure-prone rats; conditions: audiogenic seizure-prone animals
[5] = target: T1, NKCC1 (Homo sapiens, UniProt P55011); conditions: for affinity for NKCC1 over KCC2: selectivity
T1 sequence (P55011 1-1212): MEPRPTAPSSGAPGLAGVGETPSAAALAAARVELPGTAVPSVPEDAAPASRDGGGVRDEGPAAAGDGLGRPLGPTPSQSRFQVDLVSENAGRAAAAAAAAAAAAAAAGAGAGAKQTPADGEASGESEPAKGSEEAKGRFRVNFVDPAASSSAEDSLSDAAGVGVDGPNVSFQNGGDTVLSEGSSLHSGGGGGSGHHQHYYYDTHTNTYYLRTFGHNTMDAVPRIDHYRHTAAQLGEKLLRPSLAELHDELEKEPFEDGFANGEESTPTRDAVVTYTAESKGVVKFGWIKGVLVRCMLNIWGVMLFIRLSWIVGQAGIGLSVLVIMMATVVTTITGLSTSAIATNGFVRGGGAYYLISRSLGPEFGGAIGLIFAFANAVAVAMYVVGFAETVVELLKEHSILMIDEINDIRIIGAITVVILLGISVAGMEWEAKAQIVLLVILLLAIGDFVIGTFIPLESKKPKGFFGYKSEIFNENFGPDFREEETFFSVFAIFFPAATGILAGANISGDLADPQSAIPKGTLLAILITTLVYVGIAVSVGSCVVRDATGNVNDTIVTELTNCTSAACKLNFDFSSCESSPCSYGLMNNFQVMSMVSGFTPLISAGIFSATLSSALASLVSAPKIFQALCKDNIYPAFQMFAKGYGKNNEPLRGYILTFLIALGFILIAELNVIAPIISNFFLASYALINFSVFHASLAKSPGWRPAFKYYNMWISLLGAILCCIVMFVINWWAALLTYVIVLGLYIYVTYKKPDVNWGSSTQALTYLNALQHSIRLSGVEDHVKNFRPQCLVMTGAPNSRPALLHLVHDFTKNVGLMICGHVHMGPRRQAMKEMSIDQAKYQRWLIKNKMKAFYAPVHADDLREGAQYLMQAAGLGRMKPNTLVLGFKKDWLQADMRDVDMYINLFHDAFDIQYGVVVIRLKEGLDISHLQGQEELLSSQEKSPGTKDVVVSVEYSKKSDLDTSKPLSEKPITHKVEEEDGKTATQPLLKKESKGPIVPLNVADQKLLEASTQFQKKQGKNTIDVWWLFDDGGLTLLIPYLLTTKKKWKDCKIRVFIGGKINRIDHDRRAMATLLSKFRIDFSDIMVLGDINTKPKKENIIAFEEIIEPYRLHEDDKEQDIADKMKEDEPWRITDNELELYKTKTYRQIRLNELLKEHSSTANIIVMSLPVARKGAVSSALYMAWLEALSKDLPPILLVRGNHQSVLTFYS

[6] = test system: rat hippocampal slices; conditions: afterdischarge, high-K+, zero-magnesium, 4-AP, bicuculline, zero-calcium models
[7] = test system: glial cell
[8] = test system: neocortex; conditions: intravenously administered, human patients
[9] = test system: adults with refractory epilepsy

Structure (SMILES) | effect on conditioned anxiety [1] | blocking epileptiform activity (focal bicuculline or 4-AP) and stimulation-evoked afterdischarges [2] | effect on kainic acid status [3] | effect on sound-triggered seizures [4] | NKCC1 antagonist potency and specificity relative to furosemide [5] | affinity for NKCC1 over KCC2 [5] | effect on epileptiform activity [6] | effect on activity-driven glial cell swelling [7] | effect on interictal spiking and stimulation-evoked afterdischarges [8] | effect on seizure frequency [9]
CCCCNc1cc(C(=O)O)cc(S(N)(=O)=O)c1Oc1ccccc1 [bumetanide] | significantly reduce conditioned anxiety | more potent than furosemide | more potent than furosemide | more potent than furosemide | more potent and specific antagonist than furosemide | significantly greater affinity for NKCC1 over KCC2 |  |  |  | 
NS(=O)(=O)c1cc(C(=O)O)c(NCc2ccco2)cc1Cl [furosemide] | significantly reduce conditioned anxiety |  |  | prevented sound-triggered seizures |  | significantly greater affinity for NKCC1 over KCC2 | block epileptiform activity | block activity-driven glial cell swelling | blocked spontaneously occurring interictal spiking and stimulation-evoked afterdischarges | significantly reduced seizure frequency
